Marks after values point to notes of the source that are not given here. Square brackets hold non-standard residues; d marks the D form. Ends that are not written are not given here. Peptide text beside a SMILES is read from it.
B1: mouse leptin: recombinant mouse leptin used as positive control in binding and SEAP assays (protein, listed as Mus musculus)
chain: MCWRPLCRFLWLWSYLSYVQAVPIQKVQDDTKTLIKTIVTRINDISHTQSVSAKQRVTGLDFIPGLHPILSLSKMDQTLAVYQQVLTSLPSQNVLQIANDLENLRDLLHLLAFSKSCSLPQTSGLQKPESLDGVLEASLYSTEVVALSRLQGSLQDILQQLDVSPEC

Assays:
[1] = Short-term (7-day) toxicity study in female C57BLK/6-m wild type mice; settings: 1 mg/day ip, 7 days
Protocol: Methods: OB3, [D-Leu-4]-OB3, hOB3 or vehicle was administered intraperitoneally once daily (1 mg/day, 7 days) to groups (n=6 mice per group) of C57BLK/6-m wild type mice of the same age as their obese (ob/ob or db/db) counterparts. The effects of the peptides on body weight gain, food and water intake, glucose homeostasis, serum insulin levels, and ability to thermoregulate were examined.

[2] = Epitope mapping: body weight and food intake in female C57BL/6J ob/ob mice, 7 daily ip injections; type: in vivo, mouse; settings: for Cumulative food intake / Percent heavier (+) or lighter (−) than initial weight / Weight gain (+) or loss (−): 1 mg/day ip; for Cumulative food intake / Percent heavier (+) or lighter (−) than initial weight / Weight gain (+) or loss (−) / Reduction of food intake / Food intake vs vehicle: 7 days; for Reduction of food intake / Weight loss: 1 mg daily; for Weight loss: after 7 days
Protocol: Animal procedures. Feeding and weighing schedules, as well as peptide administration protocols, are as described in EXAMPLE 8, supra.
Statistical analysis. Changes in body weight and differences in food intake between peptide-treated and vehicle-injected control mice were analyzed by analysis of variance (ANOVA) and considered significant when P<0.05.
Female ob/ob mice (n=6 per group) were given a single ip injection of 0.2 ml of vehicle (PBS, pH 7.2) or leptin-related synthetic peptide amide in 0.2 ml PBS for 7 consecutive days. Daily changes in body weight compared to pretreatment weights in both vehicle-injected control and peptide-treated mice are shown in FIG. 4. […] There was no evidence of weight loss in response to peptide treatment.

[3] = 28-day ip study of body weight and food intake in female C57BL/6J ob/ob mice; type: in vivo, mouse; settings: 1 mg per day ip, 28 days
Text: In order to examine this possibility, six overlapping peptide amides, which corresponded to amino acid residues 106 to 167 of mouse leptin, were synthesized and their effects on body weight and food intake in female C57BL/6J ob/ob mice were subsequently assessed.

[4] = molecular target: T1, OB-Ra (Mus musculus, UniProt P48356); test: Inhibition of AP-OB fusion protein binding by COS-7 cells transfected with OB receptor; settings: 30 nM unlabelled mouse leptin
T1 construct: expressed in transfected cells; host or cells: COS-7
T1 sequence (P48356 22-894 isoform P48356-2 limits assumed): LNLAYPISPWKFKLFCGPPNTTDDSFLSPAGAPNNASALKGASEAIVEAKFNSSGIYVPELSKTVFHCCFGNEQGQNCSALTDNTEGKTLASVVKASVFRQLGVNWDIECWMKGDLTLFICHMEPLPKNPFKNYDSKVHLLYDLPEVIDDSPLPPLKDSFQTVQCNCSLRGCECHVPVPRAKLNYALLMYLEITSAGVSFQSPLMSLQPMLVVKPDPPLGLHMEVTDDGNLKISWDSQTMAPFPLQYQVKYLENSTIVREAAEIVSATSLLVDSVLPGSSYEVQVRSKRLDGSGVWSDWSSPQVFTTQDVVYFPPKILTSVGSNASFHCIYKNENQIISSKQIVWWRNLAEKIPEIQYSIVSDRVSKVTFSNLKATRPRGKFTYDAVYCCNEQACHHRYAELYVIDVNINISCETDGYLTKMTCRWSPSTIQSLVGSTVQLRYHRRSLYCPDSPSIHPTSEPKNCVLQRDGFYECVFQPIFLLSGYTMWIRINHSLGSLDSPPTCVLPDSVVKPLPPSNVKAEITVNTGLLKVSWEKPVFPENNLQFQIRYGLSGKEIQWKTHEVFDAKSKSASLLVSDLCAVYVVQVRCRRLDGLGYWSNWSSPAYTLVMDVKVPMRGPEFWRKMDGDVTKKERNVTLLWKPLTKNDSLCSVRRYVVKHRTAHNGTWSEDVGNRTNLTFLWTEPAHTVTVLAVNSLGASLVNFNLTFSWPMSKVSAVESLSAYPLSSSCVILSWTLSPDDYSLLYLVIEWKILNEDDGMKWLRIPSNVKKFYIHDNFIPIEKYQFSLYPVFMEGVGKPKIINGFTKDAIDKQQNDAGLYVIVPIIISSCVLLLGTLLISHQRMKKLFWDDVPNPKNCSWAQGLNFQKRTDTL
Text: (§1) Initial experiments to determine the mechanism of action of LEP(116–130) utilized two highly sensitive in vitro bioassays routinely used to assess leptin binding and receptor activation (see e.g., White, et al., 1997. Proc. Natl. Acad. Sci. U.S.A. 94: 10657–10662). An alkaline phosphatase (“AP”)-leptin (“OB”) fusion protein (“AP-OB”) was used to measure inhibition of leptin binding in the absence or presence of recombinant mouse leptin (positive control) or peptide, by COS-7 cells transfected with the long (signaling) form of the mouse OB receptor (“OB-RL”). Signal transduction assays were done in GT1–7 cells cotransfected with AP reporter and OB-RL constructs. Secreted alkaline phosphatase (“SEAP”) activity in response to stimulation with mouse leptin or peptide was measured by chemiluminescence.
Two days after transfection, COS-7 cells were incubated with 1 nm human AP-OB fusion protein and bound AP activity was determined by chemiluminescence using the Great EscApe alkaline phosphatase detection kit as described by the manufacturer (CLON-TECH).
COS-7 cells were transfected with expression vector for OB-Ra. Two days after transfection, the cells were incubated with 1 nM human AB-OB fusion protein in the absence or presence of 30 nM mouse leptin, 300 μM LEP(116–130) or LEP(146–160). Bound AP activity was determined as has been described. See., e.g., Kamohara et al., 1997 Nature 389: 374–377.

[5] = molecular target: T2, OB-Rb (Mus musculus, UniProt P48356); test: SEAP reporter gene signal transduction assay in GT1–7 cells cotransfected with HRRE-SEAP and OB-Rb; type: cell-based; settings: 6 nM mouse leptin, 24 h
T2 construct: full-length leptin receptor (OB-Rb), the receptor isoform predominantly expressed in the hypothalamus; expressed in transfected cells; host or cells: GT1-7
T2 sequence (P48356 22-1162): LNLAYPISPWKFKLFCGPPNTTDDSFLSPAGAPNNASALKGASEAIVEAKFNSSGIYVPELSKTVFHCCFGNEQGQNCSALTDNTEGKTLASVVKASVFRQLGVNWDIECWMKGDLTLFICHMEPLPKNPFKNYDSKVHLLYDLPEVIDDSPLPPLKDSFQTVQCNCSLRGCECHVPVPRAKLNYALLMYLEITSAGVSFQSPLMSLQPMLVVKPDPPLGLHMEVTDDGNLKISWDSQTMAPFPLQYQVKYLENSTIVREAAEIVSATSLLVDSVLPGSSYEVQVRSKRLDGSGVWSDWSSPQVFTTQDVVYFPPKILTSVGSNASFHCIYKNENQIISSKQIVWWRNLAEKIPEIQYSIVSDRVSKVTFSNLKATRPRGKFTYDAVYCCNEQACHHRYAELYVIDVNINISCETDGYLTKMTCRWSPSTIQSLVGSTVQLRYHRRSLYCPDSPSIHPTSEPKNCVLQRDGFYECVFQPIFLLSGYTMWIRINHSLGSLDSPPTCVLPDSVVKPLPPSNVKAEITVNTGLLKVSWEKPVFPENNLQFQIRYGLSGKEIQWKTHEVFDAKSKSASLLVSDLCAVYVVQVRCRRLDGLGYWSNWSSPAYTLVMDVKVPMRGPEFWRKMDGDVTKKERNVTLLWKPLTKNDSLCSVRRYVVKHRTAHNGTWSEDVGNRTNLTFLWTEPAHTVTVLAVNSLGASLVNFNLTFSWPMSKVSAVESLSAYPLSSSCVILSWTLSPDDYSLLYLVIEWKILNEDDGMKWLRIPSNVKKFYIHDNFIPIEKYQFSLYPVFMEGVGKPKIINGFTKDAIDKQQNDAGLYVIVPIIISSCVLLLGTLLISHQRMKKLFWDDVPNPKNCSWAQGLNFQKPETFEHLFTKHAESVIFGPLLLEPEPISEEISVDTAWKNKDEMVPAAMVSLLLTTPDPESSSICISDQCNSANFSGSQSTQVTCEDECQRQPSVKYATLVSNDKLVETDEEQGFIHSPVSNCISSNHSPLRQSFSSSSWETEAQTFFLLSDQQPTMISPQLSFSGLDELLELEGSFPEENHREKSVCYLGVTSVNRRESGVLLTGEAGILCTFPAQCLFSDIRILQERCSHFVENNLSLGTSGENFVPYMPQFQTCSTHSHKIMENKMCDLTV
Text: as §1
Two days after transfection, the cells were stimulated with mouse leptin or leptin-related synthetic peptides for 24 hours. Growth media were harvested and SEAP activity was determined by chemiluminescence as described for AP-OB binding studies.
COS-7 and GT1–7 cells were cultured in DMEM supplemented with 10% fetal bovine serum, and transfected by the lipofectamine method. […] Supernatants were collected and SEAP reporter activities were measured by chemiluminescence using the GreatEscApe alkaline phosphatase detection kit as described by the manufacturer (CLONTECH). […]

Molecule | Toxic effects [1] | Cumulative food intake [2] | Percent heavier (+) or lighter (−) than initial weight [2] | Weight gain (+) or loss (−) [2] | Weight gain and food intake vs vehicle [3] | also measured
CC(C)C[C@@H](NC(=O)[C@H](CO)NC(=O)[C@H](CS)NC(=O)[C@@H](N)CO)C(=O)N1CCC[C@H]1C(=O)N[C@@H](CCC(N)=O)C(=O)N[C@H](C(N)=O)[C@@H](C)O [[D-Leu-4]-OB3, Ser-Cys-Ser-[D-Leu]-Pro-Gln-Thr] (H-SCS[dL]PQT-NH2) | no apparent toxic effects |  |  |  |  | 
D I L Q Q L D V S P E C (DILQQLDVSPEC; not fully specified (N-terminus)) [LEP(156–167)] |  | 40.3 ± 0.6 gm/mouse | +22.6% | +5.7 g | continued to consume food and gain weight at a rate comparable to vehicle-injected control mice | 
D L L H L L A F S K S C S L P (DLLHLLAFSKSCSLP) [LEP(106–120)] |  | 34.5 ± 1.1^b gm/mouse | −12.0% | −6.1^a g | significantly (P<0.01) restricted weight gain and food intake | Reduction of food intake [2]: 14.8%; Weight loss [2]: 12.0%; Food intake vs vehicle [2]: significantly (P=0.01) less than vehicle-injected control mice
E A S L Y S T E V V A L S R L (EASLYSTEVVALSRL; not fully specified (N-terminus)) [LEP(136–150)] |  | 38.7 ± 1.6 gm/mouse | +25.6% | +5.4 g | continued to consume food and gain weight at a rate comparable to vehicle-injected control mice | 
Q K P E S L D G V L E A S L Y (QKPESLDGVLEASLY; not fully specified (N-terminus)) [LEP(126–140)] |  | 34.7 ± 1.3^b gm/mouse | −10.2% | −6.0^a g | significantly (P<0.01) restricted weight gain and food intake | Reduction of food intake [2]: 14.3%; Weight loss [2]: 10.2%; Food intake vs vehicle [2]: significantly (P=0.01) less than vehicle-injected control mice
SCHLPWA-NH2 [hOB3, S C H L P W A] | no apparent toxic effects |  |  |  |  | 
SCSLPQT-NH2 [OB3, Ser-Cys-Ser-Leu-Pro-Gln-Thr] | no apparent toxic effects |  |  |  |  | 
B1 |  |  |  |  |  | Competition of bound AP-OB [4]: efficiently competed; Increase in SEAP activity [5]: 11 fold

— patent publication US7208572B2, “Leptin-related peptides” (Albany Medical College, priority 1998, dated 2007)
